Measured values reported in patent US10500301B2, “Agent for salting out active principles in dressings containing at least one of fatty substance” (URGO RECHERCHE INNOVATION ET DEVELOPPEMENT, priority 2007, dated 2019).

Columns and labels:
[1] = Release of the active substance from interface dressings into physiological saline solution, HPLC assay; type: physicochemical; details: Sepinov EMT 10 versus Montanox 80 as releasing agent in interface dressings, irrespective of the active substance
Description: In the case of interface dressings, prepared from the masses of examples 1 to 4 and 13 to 18, samples of 25 cm^2 of dressing (cut with a calibrated punch and precisely weighed) were introduced into an Erlenmeyer flask containing 10 ml of physiological saline solution. The glassware, hermetically sealed, was placed in an incubator at 37° C. for 24 h. The supernatant was removed and filtered. The amount of active substance was assayed by HPLC (high performance liquid chromatography) according to the methods described below.
The following conditions for assaying by high performance liquid chromatography (HPLC) were used: […]
The detection threshold for the potassium sucrose octasulfate was 0.06 mg/ml. When no peak was detected, the result was increased by the detection threshold. […]
The detection threshold for the silver sulfadiazine was 0.0006 mg/ml. When no peak was detected, the result was increased by the detection threshold.
• A calibration straight line was plotted using the calibration points, and the equation of the straight line y=ax+b (r^2>0.999), in which y=surface area under the peak x=concentration of the standard (in mg/ml) r^2=determination coefficient, was calculated. • The content of potassium sucrose octasulfate or silver sulfadiazine (x) was calculated. […]
The percentage of release of the active substance is calculated according to the following formula: […]

[2] = tested on: normal human dermal fibroblasts (NHDF) R9PF2; assay: Effect of dressings on fibroblast cultures (MTT test, tritiated thymidine incorporation); type: cell-based; details: releasing agent in dressings
Description: • Type: pool of normal human dermal fibroblasts (NHDF) R9PF2 • Culture: 37° C., 5% CO2 Culture Medium: • DMEM (Dulbecco's Modified Eagle Medium, Invitrogen 21969035) • 2 mM L-glutamine (Invitrogen 25030024) • 50 UI/ml penicillin, 50 μg/ml streptomycin (Invitrogen 15070063) • 10% fetal calf serum (v/v, Invitrogen 10270098). Products Tested:
Dressings according to examples 1 and 23 were cut to the size of the wells and tested.
The fibroblasts were seeded at confluence in a 12-well plate.
Pieces of each dressing were cut to a size of 1.4 cm×1.4 cm (i.e. 1.96 cm^2), applied to the surface of the fibroblasts and held in place using a plug. A control without dressing but with a plug, and also a control without dressing and without plug were carried out.
The cells were then incubated for 48 hours, 96 hours and 168 hours (7 days) at 37° C. and 5% CO2. For each incubation time, the metabolic activity was measured using a standard MTT test, which accounts for the mitochondrial dehydrogenases activity. Tritiated thymidine ([methyl-3H]-thymidine, Amersham TRK 686 2.5 μCi/ml final concentration) was added during the last 24 hours of incubation, and then the DNA of the cells of the cell layers was extracted and purified and the radioactivity incorporated into the DNA was counted using a scintillation counter.
All experiments were carried out in triplicate. […]

In the case of polysorbate 80, the “Release of the active substance with the releasing agent, comparison in words” value [1] is reported as “substantially the same release of the active substance” and the “Effect on fibroblasts (toxicity / proliferation), in words” value [2] is reported as “exhibits toxicity with respect to these cells”.
